Data as given in publication PMC7203735, “Characterization of an A-Type Muscarinic Acetylcholine Receptor and Its Possible Non-neuronal Role in the Oriental Armyworm, Mythimna separata Walker (Lepidoptera: Noctuidae)” (Frontiers in Physiology, 2020).
Read-outs that look alike come from different tables or passages of the source.

Biological target: T1, Ms A-type mAChR (Ms A-mAChR) (Mythimna separata, UniProt A0A2D1QUJ3)
T1 sequence (A0A2D1QUJ3 1-601): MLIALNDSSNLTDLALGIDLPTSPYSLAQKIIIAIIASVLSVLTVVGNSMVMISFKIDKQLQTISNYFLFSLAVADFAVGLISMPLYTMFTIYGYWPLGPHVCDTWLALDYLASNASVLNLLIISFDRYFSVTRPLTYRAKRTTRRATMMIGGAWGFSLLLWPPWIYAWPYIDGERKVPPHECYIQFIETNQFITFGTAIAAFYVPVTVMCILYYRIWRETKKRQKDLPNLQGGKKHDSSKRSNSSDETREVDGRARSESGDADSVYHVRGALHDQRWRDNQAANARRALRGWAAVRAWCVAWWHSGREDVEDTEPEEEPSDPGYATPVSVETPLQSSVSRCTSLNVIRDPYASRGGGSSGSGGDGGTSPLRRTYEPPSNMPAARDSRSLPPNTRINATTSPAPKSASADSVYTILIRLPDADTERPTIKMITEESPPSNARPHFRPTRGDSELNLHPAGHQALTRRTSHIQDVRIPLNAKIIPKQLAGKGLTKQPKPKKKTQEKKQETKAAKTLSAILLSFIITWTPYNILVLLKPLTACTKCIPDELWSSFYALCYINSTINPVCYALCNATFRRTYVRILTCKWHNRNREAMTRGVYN
Experiment: FLIPR calcium mobilization in transfected HEK […] cells
Assay type: cell-based

| EC50 (read-out: EC50) [nM] | SMILES | EC50 [nM] |
| --- | --- | --- |
| 125 | C[N+](C)(C)CCOC(N)=O [carbachol] | – |
| – | C[C@@H]1O[C@H](C[N+](C)(C)C)C[C@H]1O [muscarine] | 388 |
